The text below walks through data of article PMC10677270, “2554. What’s Weight Got to Do with It? Prospective Pharmacokinetic/Pharmacodynamic Evaluation of Fixed-Dose Daptomycin” (Open Forum Infectious Diseases, 2023).

This series can be described thus: Steady-state pharmacokinetic/pharmacodynamic evaluation of fixed-dose (750 mg) daptomycin in patients with Staphylococcus aureus infections.

Method: This study evaluated systemic exposure of a fixed dose (750 mg) of DAP in patients with Staphylococcus aureus infections. Methods Adult non-ICU patients with CrCl ≥ 30 mL/min admitted to our academic medical center warranting DAP for a S. aureus infection were eligible for enrollment. DAP 750 mg was infused over 30 minutes every 24 hours. At steady state, concentrations were obtained pre-dose (0.5 hours) and 1, 12, and 24 hours after the start of infusion. Concentrations were measured using a validated LC-MS assay. Pharmacokinetic (PK) analysis was performed using first-order equations and stratified by weight: low (< 65 kg), normal (65-85 kg), and high ( > 85 kg). Therapeutic AUC24 (≥ 666 mg*hr/L) and elevated trough (Cmin > 24.3 mg/L) were the efficacy and safety targets, respectively.

Regarding `CCCCCCCCCC(=O)N[C@@H](Cc1c[nH]c2ccccc12)C(=O)N[C@H](CC(N)=O)C(=O)N[C@@H](CC(=O)O)C(=O)N[C@@H]1C(=O)NCC(=O)N[C@@H](CCCN)C(=O)N[C@@H](CC(=O)O)C(=O)N[C@H](C)C(=O)N[C@@H](CC(=O)O)C(=O)NCC(=O)N[C@H](CO)C(=O)N[C@@H]([C@H](C)CC(=O)O)C(=O)N[C@@H](CC(=O)c2ccccc2N)C(=O)O[C@@H]1C` [DAP, daptomycin], the Ke (all patients n=22, DAP 750 mg infused over 30 min every 24 h, LC-MS, first-order equations, median, IQR [0.046, 0.098]) turned out to be 0.078 h⁻¹. Where the note is “all patients n=22, DAP 750 mg infused over 30 min every 24 h, LC-MS, median, IQR [7.3, 29.9]”, this compound registered a Cmin of 10.5 mg/L. For the same compound, the “Therapeutic AUC24 (>= 666 mg*hr/L) achieved, share of patients” value was determined as 64% (all patients, 14/22, DAP 750 mg every 24 h, efficacy target); 83% (females n=12, DAP 750 mg every 24 h); 40% (males n=10, DAP 750 mg every 24 h).
